Measurements: patent US20210205196A1, “PRESERVED COMPOSITIONS” (Conopco, Inc., d/b/a UNILEVER, priority 2018, published 2021)

What was measured:
[1] = tested on: Gram Negative non-fermenting bacteria: Pseudomonas aeruginosa, Burkholderia cepacia, Strenotrophomonas sp; test: Modified Ph. Eur. 5.1.3 microbial challenge test in shampoo, Pool 1; format: cell-based
[2] = tested on: Gram Negative fermenting bacteria: Enterobacter cloacae, Klebsiella sp; test: Modified Ph. Eur. 5.1.3 microbial challenge test in shampoo, Pool 2; format: cell-based
[3] = 0.5% (w/w) acid in shampoo base, pH 5, 7 days
[4] = 0.5% (w/w) acid in shampoo base, pH 5, 14 days (reinoculated at 7 days)
[5] = 0.5% (w/w) acid in shampoo base, pH 5, 21 days (reinoculated at 7 and 14 days)
[6] = 0.5% (w/w) acid in shampoo base, pH 5, 28 days (reinoculated at 7 and 14 days)
[7] = 1.0% (w/w) acid in shampoo base, pH 5, 7 days
[8] = 1.0% (w/w) acid in shampoo base, pH 5, 14 days (reinoculated at 7 days)
[9] = 1.0% (w/w) acid in shampoo base, pH 5, 21 days (reinoculated at 7 and 14 days)
[10] = 1.0% (w/w) acid in shampoo base, pH 5, 28 days (reinoculated at 7 and 14 days)

Compound | Microbial Log reduction [1, 3] [log] | Microbial Log reduction [1, 4] [log] | Microbial Log reduction [1, 5] [log] | Microbial Log reduction [1, 6] [log] | Microbial Log reduction [1, 7] [log] | Microbial Log reduction [1, 8] [log] | Microbial Log reduction [1, 9] [log] | Microbial Log reduction [1, 10] [log] | Microbial Log reduction [2, 3] [log] | Microbial Log reduction [2, 4] [log] | Microbial Log reduction [2, 5] [log] | Microbial Log reduction [2, 6] [log] | Microbial Log reduction [2, 7] [log] | Microbial Log reduction [2, 8] [log] | Microbial Log reduction [2, 9] [log] | Microbial Log reduction [2, 10] [log]
O=C(O)CC(O)(CC(=O)O)C(=O)O [Citric acid, citric acid] | >5.61 | 3.84 | >5.74 | >5.74 | >5.61 | >5.56 | >5.74 | >5.74 | 4.88 | >5.69 | >5.80 | >5.80 | 4.97 | >5.69 | >5.80 | >5.80
CC(O)C(=O)O (stereo not drawn) [Lactic acid, lactic acid] | >5.61 | >5.56 | >5.74 | >5.74 | >5.61 | >5.56 | >5.74 | >5.74 | 3.93 | >5.69 | >5.80 | >5.80 | >5.88 | >5.69 | >5.80 | >5.80
C=C(CC(=O)O)C(=O)O [Itaconic acid] | >5.68 | >5.56 | >5.74 | >5.74 | >5.61 | >5.56 | >5.74 | >5.74 | >5.88 | >5.69 | >5.80 | >5.80 | >5.88 | >5.69 | >5.80 | >5.80
